Test results: patent US9000162B2, “5,8-difluoro-4-(2-(4-(heteroaryloxy)-phenyl)ethylamino)quinazolines and their use as agrochemicals” (Dow AgroSciences LLC, priority 2008, dated 2015)

What was measured:
Assay type in all cases: in vivo
[1] = system: Puccinia recondita tritici (PUCCRT); assay: Leaf rust of wheat foliar protectant test; conditions: 200 ppm foliar, inoculated one day after treatment, read-out: Activity against fungal diseases PUCCRT
Method in brief: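 Wheat seedlings (3–8 per pot) were sprayed to wet with formulated compound and inoculated the next day with an aqueous Puccinia recondita tritici spore suspension. Severity was converted to % control versus untreated inoculated plants and rated *** 80–100%, ** 50–79%, * 0–49%.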

[2] = system: Pseudoperonospora cubensis (PSPECU); assay: Cucumber downy mildew foliar protectant test; conditions: 200 ppm foliar, inoculated one day after treatment, read-out: Activity against fungal diseases PSPECU
Method in brief: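 Cucumber seedlings, first true leaf 20-80% expanded, were sprayed to wetness with formulated compound and inoculated next day with aqueous sporangia suspension. Severity was converted to percent control versus untreated inoculated plants: ***=80-100%, **=50-79%, *=0-49%.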

[3] = system: Magnaporthe grisea = Pyricularia oryzae (PYRIOR); assay: whole plant or invertebrate; conditions: foliar, read-out: Activity against fungal diseases PYRIOR
[4] = system: Septoria tritici (SEPTTR); assay: Septoria blotch of wheat foliar protectant test; conditions: Zymoseptoria tritici, read-out: Activity against fungal diseases SEPTTR; for pest or weed control at 200 ppm: 200 ppm foliar, inoculated one day after treatment; for pest or weed control at 25 ppm: foliar, Tested at 25 ppm (footnote b)
Method in brief: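 Wheat seedlings (3-10 per pot) were sprayed to wet with formulated compound and inoculated next day with Septoria tritici spores. Plants then had 1 day in a dark dew chamber and 3 days in a lighted one before greenhouse incubation. Severity versus untreated inoculated plants gave percent control, scored *** 80-100%, ** 50-79%, * 0-49%.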

Structure (SMILES)	pest or weed control at 200 ppm [1]	pest or weed control at 200 ppm [2]	pest or weed control at 200 ppm [3]	pest or weed control at 200 ppm [4]	pest or weed control at 25 ppm [4]
C=Cc1cc(CCNc2ncnc3c(F)ccc(F)c23)ccc1Oc1cc(C(F)(F)F)ccn1 [Compound 65]	80 to 100%	80 to 100%	80 to 100%	80 to 100%	
Cc1cc(C(F)(F)F)cc(Oc2ccc(CCNc3ncnc4c(F)ccc(F)c34)cc2)n1 [Compound 7]	80 to 100%	80 to 100%	80 to 100%	80 to 100%	
COc1cc(C)c(CCNc2ncnc3c(F)ccc(F)c23)cc1C [Compound 17]	80 to 100%	80 to 100%	50 to 79%	0 to 49%	
N#Cc1c(Cl)cncc1Oc1ccc(CCNc2ncnc3c(F)ccc(F)c23)cc1 [Compound 129]	80 to 100%	80 to 100%	80 to 100%	50 to 79%	
[O-][n+]1ccc(C(F)(F)F)cc1Oc1ccc(CCNc2ncnc3c(F)cc(F)c(F)c23)cc1 [Compound 75]	80 to 100%	80 to 100%	80 to 100%	80 to 100%	
COc1cc(CCNc2ncnc3c(F)ccc(F)c23)ccc1Oc1cc(C(F)(F)F)ncn1 [Compound 112]	80 to 100%	80 to 100%	80 to 100%		80 to 100%
CC(C)Oc1cc(CCNc2ncnc3c(F)ccc(F)c23)ccc1Oc1cc(C(F)(F)F)ccn1 [Compound 58]	80 to 100%	80 to 100%	80 to 100%	80 to 100%	
Fc1ccc(F)c2c(NCCOc3ccc(Oc4cc(C(F)(F)F)ccn4)cc3)ncnc12 [Compound 8]	80 to 100%	80 to 100%	80 to 100%	50 to 79%	
[O-][n+]1ccc(Oc2ccc(CCNc3ncnc4c(F)ccc(F)c34)cc2)c(C(F)(F)F)c1 [Compound 84]	80 to 100%	80 to 100%	80 to 100%	80 to 100%	
Fc1cc(CCNc2ncnc3c(F)ccc(F)c23)ccc1Oc1ncc(C(F)(F)F)cc1F [Compound 131]	80 to 100%	80 to 100%	80 to 100%	80 to 100%	
Oc1ccc(CCNc2ncnc3c(F)cc(F)c(F)c23)cc1 [Compound 27]	0 to 49%	0 to 49%	0 to 49%	0 to 49%	
[O-][n+]1ccc(C(F)(F)F)cc1Oc1ccc(CCNc2ncnc3c(F)ccc(F)c23)cc1 [Compound 54]	80 to 100%	80 to 100%	80 to 100%	80 to 100%	
Cc1cc(CCNc2ncnc3c(F)cc(F)c(F)c23)ccc1O [Compound 70]	50 to 79%	0 to 49%	50 to 79%	50 to 79%	
CCc1cc(CCNc2ncnc3c(F)ccc(F)c23)ccc1Oc1cc(C(F)(F)F)ccn1 [Compound 66]	80 to 100%	80 to 100%	80 to 100%	80 to 100%	
COc1cc(C(F)(F)F)cc(Oc2ccc(CCNc3ncnc4c(F)ccc(F)c34)cc2)n1 [Compound 9]	80 to 100%	80 to 100%	80 to 100%	50 to 79%	
COc1ccc(CCNc2ncnc3c(F)cc(F)c(F)c23)cc1C [Compound 68]	0 to 49%	50 to 79%	80 to 100%	0 to 49%	
Cc1cc(CCNc2ncnc3c(F)ccc(F)c23)ccc1O [Compound 24]	0 to 49%	0 to 49%	0 to 49%	0 to 49%	
Cc1cc(CCNc2ncnc3c(F)ccc(F)c23)ccc1Oc1cc(C(F)(F)F)ccn1 [Compound 25]	80 to 100%	80 to 100%	80 to 100%	80 to 100%	
N#Cc1ccnc(Oc2ccc(CCNc3ncnc4c(F)ccc(F)c34)cc2)c1 [Compound 2]	80 to 100%	80 to 100%	80 to 100%	0 to 49%	

Structure (SMILES)	pest or weed control at 200 ppm [1]	pest or weed control at 200 ppm [2]	pest or weed control at 200 ppm [3]	pest or weed control at 200 ppm [4]	pest or weed control at 25 ppm [4]
COc1cc(CCNc2ncnc3c(F)ccc(F)c23)ccc1Oc1nc(C(F)(F)F)nc(F)c1F [Compound 101]	50 to 79%	80 to 100%	0 to 49%	0 to 49%	
Cc1cc(CCNc2ncnc3c(F)ccc(F)c23)ccc1Oc1nc(F)c(F)c(N)c1F [Compound 99]	80 to 100%	80 to 100%	80 to 100%	0 to 49%	
Oc1ccc(CCNc2ncnc3c(F)cc(F)c(F)c23)cc1Cl [Compound 88]	0 to 49%	80 to 100%	0 to 49%	0 to 49%	
Cc1cc(CCNc2ncnc3c(F)cc(F)c(F)c23)ccc1Oc1cc(C(F)(F)F)ccn1 [Compound 80]	80 to 100%	80 to 100%	80 to 100%	80 to 100%	
Cc1cc(CCNc2ncnc3c(F)ccc(F)c23)ccc1Oc1cc(C(C)(F)F)ccn1 [Compound 64]	80 to 100%	80 to 100%	80 to 100%	80 to 100%	
COc1cc(C(F)(F)F)cc(Oc2ccc(CCNc3ncnc4c(F)ccc(F)c34)c(C)c2C)n1 [Compound 30]	80 to 100%	50 to 79%	50 to 79%	0 to 49%	
Oc1ccc(CCNc2ncnc3c(F)ccc(F)c23)cc1Cl [Compound 87]	0 to 49%	50 to 79%	0 to 49%	0 to 49%	
Oc1ccc(CCNc2ncnc3c(F)ccc(F)c23)cc1 [Compound 4]	50 to 79%	50 to 79%	0 to 49%	0 to 49%	
Cc1cc(CCNc2ncnc3c(F)cc(F)c(F)c23)ccc1Oc1cc(C(F)(F)F)cc[n+]1[O-] [Compound 81]	80 to 100%	80 to 100%	80 to 100%	80 to 100%	
COc1cc(CCNc2ncnc3c(F)ccc(F)c23)ccc1Oc1ccc(C(F)(F)F)cn1 [Compound 52]	80 to 100%	80 to 100%	80 to 100%	80 to 100%	
COc1cc(CCNc2ncnc3c(F)ccc(F)c23)ccc1Oc1c(Cl)cnc(C(Cl)(Cl)Cl)c1Cl [Compound 89]	80 to 100%	50 to 79%	50 to 79%	50 to 79%	
COc1ccc(CCNc2ncnc3c(F)ccc(F)c23)cc1F [Compound 46]	80 to 100%	80 to 100%	0 to 49%	0 to 49%	
Cc1cc(CCNc2ncnc3c(F)ccc(F)c23)ccc1Oc1cc(C(F)(F)F)ncn1 [Compound 117]	80 to 100%	80 to 100%	80 to 100%		80 to 100%
CC(F)(F)c1ccnc(Oc2ccc(CCNc3ncnc4c(F)ccc(F)c34)cc2)c1 [Compound 12]	80 to 100%	80 to 100%	80 to 100%	80 to 100%	
Oc1cc(CCNc2ncnc3c(F)ccc(F)c23)ccc1Oc1cc(C(F)(F)F)ccn1 [Compound 56]	80 to 100%	80 to 100%	80 to 100%	50 to 79%	
Fc1cc(CCNc2ncnc3c(F)cc(F)c(F)c23)ccc1Oc1cc(C(F)(F)F)ccn1 [Compound 67]	80 to 100%	80 to 100%	80 to 100%	80 to 100%	
N#Cc1cc(Oc2ccc(CCNc3ncnc4c(F)ccc(F)c34)cc2)ncc1Cl [Compound 126]	80 to 100%	80 to 100%	80 to 100%		80 to 100%
COc1ccc(CCNc2ncnc3c(F)ccc(F)c23)c(C)c1C [Compound 20]	80 to 100%	80 to 100%	50 to 79%	50 to 79%	
Cc1cc(CCNc2ncnc3c(F)ccc(F)c23)c(C)cc1O [Compound 18]	50 to 79%	0 to 49%	0 to 49%	0 to 49%	
